# Experimental data as given in patent publication US9000016B2, “1,3,4-Oxadiazoles-2-thio derivatives as sphingosine-1 phosphate receptors modulators” (Allergan, Inc., priority 2012, dated 2015).
# Biological target: T1, human S1P1 receptor (Homo sapiens, UniProt P21453)
# T1 construct: expressed in transfected cells; membranes used
# Test: GTP γ35S binding assay for S1P1 activity
# Format: biochemical
# Conditions: membranes of cells stably expressing the S1P1 receptor, agonist potency
# Protocol: Compounds were synthesized and tested for S1P1 activity using the GTP γ^35S binding assay. These compounds may be assessed for their ability to activate or block activation of the human S1P1 receptor in cells stably expressing the S1P1 receptor.
# GTP y^35S binding was measured in the medium containing (mM) HEPES 25, pH 7.4, MgCl210, NaCI 100, dithiothreitol 0.5, digitonin 0.003%, 0.2 nM GTP y^35S, and 5 µg membrane protein in a volume of 150 μl. Test compounds were included in the concentration range from 0.08 to 5,000 nM unless indicated otherwise. Membranes were incubated with 100 μM 5′-adenylylimidodiphosphate for 30 min, and subsequently with 10 μM GDP for 10 min on ice. Drug solutions and membrane were mixed, and then reactions were initiated by adding GTP y^35S and continued for 30 min at 25° C. Reaction mixtures were filtered over Whatman GF/B filters under vacuum, and washed three times with 3 mL of ice-cold buffer (HEPES 25, pH7.4, MgCl210 and NaCI 100). Filters were dried and mixed with scintillant, and counted for ^35S activity using a β-counter. Agonist-induced GTP y^35S binding was obtained by subtracting that in the absence of agonist. Binding data were analyzed using a non-linear regression method. In case of antagonist assay, the reaction mixture contained 10 nM S1 P1 in the presence of test antagonist at concentrations ranging from 0.08 to 5000 nM.
# T1 sequence (P21453 whole entry): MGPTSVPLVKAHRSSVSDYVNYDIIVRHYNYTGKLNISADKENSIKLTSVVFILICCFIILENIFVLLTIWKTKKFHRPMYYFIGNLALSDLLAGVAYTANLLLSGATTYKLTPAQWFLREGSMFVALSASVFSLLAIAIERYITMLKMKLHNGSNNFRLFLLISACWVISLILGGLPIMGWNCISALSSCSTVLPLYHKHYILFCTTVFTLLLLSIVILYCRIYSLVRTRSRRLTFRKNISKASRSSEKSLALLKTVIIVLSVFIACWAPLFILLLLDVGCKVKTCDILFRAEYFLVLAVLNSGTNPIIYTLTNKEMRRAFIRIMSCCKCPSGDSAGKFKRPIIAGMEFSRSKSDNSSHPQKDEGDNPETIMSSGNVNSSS
row,EC50,Compound
1,8.4 nM,"Cc1ccc(-c2nnc(SC(C)c3ccc(CNCCC(=O)O)cc3)o2)cc1C (centres unmarked) [Compound 3, 3-{[4-(1-{[5-(3,4-Dimethylphenyl)-1,3,4-oxadiazol-2-yl]thio}ethyl)benzyl]amino}propanoic acid]"
2,82 nM,"Cc1ccc(-c2nnc(SC(C)c3ccc(CNCCCP(=O)(O)O)cc3)o2)cc1C (centres unmarked) [Compound 1, (3-{[4-(1-{[5-(3,4-Dimethylphenyl)-1,3,4-oxadiazol-2-yl]thio}ethyl)benzyl]amino}propyl)phosphonic acid]"
